Data on 30 compounds can be found in patent US20080021026A1, “BENZOTHIOPHENE INHIBITORS OF RHO KINASE” (priority 2006, published 2008).

In test [1] the target is T1, recombinant N-terminal GST-tagged human Rho kinase 1 (ROCK1, amino acids 1-535) (Homo sapiens, UniProt Q13464).
T1 construct: ROCK1, amino acids 1-535; purchased Invitrogen Inc. PV-3691
Put plainly: In vitro Rho kinase assay (luciferase-based ATP consumption), ROCK1. The class given is biochemical. As to the method: In Vitro Rho Kinase Assay
Rho kinase biochemical assays described below depend on firefly luciferase-based, indirect measurement of total ATP consumption by the kinase following incubation with substrate and ATP. 25 μl of Rho kinase assay buffer (20 mM Tris-HCL [pH 7.5], 1 mM MgCl2, 0.4 mM CaCl2, 0.15 mM EGTA, 0.1 mg/ml bovine serum albumin) containing 0.82 μg/ml of recombinant N-terminal GST-tagged human Rho kinase 1 (ROCK1, amino acids 1-535, Invitrogen Inc., cat. #PV-3691) or recombinant N-terminal GST-tagged human Rho kinase 2 (ROCK2, amino acids 1-552, Invitrogen Inc., cat #PV3759), 100 μg/ml S6 peptide substrate (related to amino acids 218-249 of the human 40S ribosomal protein S6, and suitable for ROCK1 or ROCK2, e.g. Upstate/Millipore Inc., cat #12-420), and 3 µM ATP are dispensed to wells of a 384 multi-well opaque plate. The plate is centrifuged for 30 seconds at approximately 200×g. 240 nl of test compound in DMSO is dispensed to each well by passive pin transfer. The lag phase of this in vitro kinase reaction permits addition of compounds soon after the reaction initiates. The reaction is allowed to incubate at 30° C. for 2 hours. The assay plates are sealed and maintained in a humidified environment. After 2 hours, 25 μl of easylite protein kinase assay reagent (Perkin-Elmer, Inc.) is dispensed. After an additional 10 minute incubation at room temperature (about 22° C.), luminescence activity is measured on a Molecular Devices Analyst multi-mode plate reader or other suitable plate reader. Kinase inhibition results in less ATP consumption, and therefore increased luminescence signal. Negative control activity is measured with DMSO lacking any test compound. The positive control is 2-methyl-1-(4-methylisoquinolin-5-ylsulfonyl)perhydro-1,4-diazepine hydrochloride (aka H-1152P, HCl salt). Efficacy is measured as a percentage of positive control activity. […] The designation NT means the cited example was not tested.

Test [2] deals with T2, recombinant N-terminal GST-tagged human Rho kinase 2 (ROCK2, amino acids 1-552) (Homo sapiens, UniProt O75116).
T2 construct: ROCK2, amino acids 1-552; purchased Invitrogen Inc. PV3759
T2 sequence (O75116 1-552): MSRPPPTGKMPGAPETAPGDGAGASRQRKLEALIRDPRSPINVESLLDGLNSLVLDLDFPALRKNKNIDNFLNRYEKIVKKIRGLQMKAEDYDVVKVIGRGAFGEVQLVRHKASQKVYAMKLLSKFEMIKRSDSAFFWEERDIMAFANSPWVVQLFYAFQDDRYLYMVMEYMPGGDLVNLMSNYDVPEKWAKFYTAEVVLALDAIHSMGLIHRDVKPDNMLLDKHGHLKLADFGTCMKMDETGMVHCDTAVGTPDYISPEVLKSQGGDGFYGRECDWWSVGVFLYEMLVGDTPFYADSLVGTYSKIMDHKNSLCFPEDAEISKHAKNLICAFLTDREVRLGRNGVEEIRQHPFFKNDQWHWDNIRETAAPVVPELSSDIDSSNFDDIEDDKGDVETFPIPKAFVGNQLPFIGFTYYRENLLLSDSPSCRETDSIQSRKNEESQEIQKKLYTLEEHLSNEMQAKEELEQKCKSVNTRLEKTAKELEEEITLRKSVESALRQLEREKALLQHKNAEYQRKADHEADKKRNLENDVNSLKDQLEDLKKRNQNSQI
Put plainly: In vitro Rho kinase assay (luciferase-based ATP consumption), ROCK2. The class given is biochemical. The gist of the method:
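Luciferase-based luminescence of leftover ATP after 2 h at 30 °C, where inhibition raises signal, reports activity of GST-tagged ROCK2 (aa 1-552) at 0.82 μg/ml. Conditions: S6 peptide 100 μg/ml, […], pH 7.5 Tris buffer. Results given as percent of H-1152P control activity.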

Where [3] appears, read: recombinant GST-tagged human ROCK1, luciferase-based ATP consumption, read-out: ROCK1 IC50.
Setting [4] is: recombinant GST-tagged human ROCK2, luciferase-based ATP consumption, read-out: ROCK2 IC50.
[5] abbreviates: ROCK1 IC50, recombinant GST-tagged human ROCK1, luciferase-based ATP consumption.
The mark [6] stands for this setting: ROCK2 IC50, recombinant GST-tagged human ROCK2, luciferase-based ATP consumption.

Structures are written as SMILES. pIC50: −log10 of the molar value. Like-named read-outs stand apart in the source and are kept apart here. Where only a bound is given, the exact number is not on record here.

T1 sequence (Q13464 1-535): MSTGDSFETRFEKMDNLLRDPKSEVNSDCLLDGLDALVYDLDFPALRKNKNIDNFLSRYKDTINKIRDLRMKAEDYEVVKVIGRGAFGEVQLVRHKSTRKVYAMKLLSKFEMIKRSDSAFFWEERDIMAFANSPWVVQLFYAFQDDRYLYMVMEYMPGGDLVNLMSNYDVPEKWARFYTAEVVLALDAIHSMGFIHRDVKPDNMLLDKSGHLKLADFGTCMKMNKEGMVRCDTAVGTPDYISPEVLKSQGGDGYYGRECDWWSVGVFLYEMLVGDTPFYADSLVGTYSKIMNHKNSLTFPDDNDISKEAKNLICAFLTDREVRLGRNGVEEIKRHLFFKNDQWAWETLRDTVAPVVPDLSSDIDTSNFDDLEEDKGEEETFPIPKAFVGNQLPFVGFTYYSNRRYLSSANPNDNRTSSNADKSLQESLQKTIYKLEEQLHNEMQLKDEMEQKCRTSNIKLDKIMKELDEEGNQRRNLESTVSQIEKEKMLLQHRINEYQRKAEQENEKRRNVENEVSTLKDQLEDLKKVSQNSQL

Regarding `Cc1c(-c2ccnc(N)n2)sc2ccc(CNC(=O)c3cc([N+](=O)[O-])ccc3O)cc12` [Example 228, Cc1c(sc2ccc(CNC(═O)c3cc(ccc3O)[N+]([O−])═O)cc12)-c4ccnc(N)n4], the pIC50 (commonly −log10 of the IC50, conventionally taken in molar units) in test [1] (setting [3]) is below 5.30; in test [2] (setting [4]) it was above 5.30.

Consider `Cc1c(-c2ccnc(N)n2)sc2ccc(CNC(=O)CCc3ccccc3O)cc12` [Example 176, Cc1c(sc2ccc(CNC(═O)CCc3ccccc3O)cc12)-c4ccnc(N)n4], for which the pIC50 is below 5.30 in test [1] (setting [3]) and above 5.30 in test [2] (setting [4]).

For the compound `Cc1c(-c2ccnc(N)n2)sc2ccc(CNC(=O)c3ncc[nH]3)cc12` [Example 103, Cc1c(sc2ccc(CNC(═O)c3ncc[nH]3)cc12)-c4ccnc(N)n4], the pIC50 in test [1] (setting [3]) and in test [2] (setting [4]) was above 5.30 throughout.

As to `Cc1c(-c2ccnc(N)n2)sc2cnccc12` [Example 18, 4-(3-Methylthieno[2,3-c]pyridin-2-yl)pyrimidin-2-amine], the pIC50 in test [1] (setting [3]) and in test [2] (setting [4]) was above 5.30 throughout.

Take `Nc1nccc(-c2sc3ccc(Cl)cc3c2-c2ccccc2)n1` [Example 17, 4-(5-Chloro-3-phenylbenzo[b]thiophen-2-yl)pyrimidin-2-amine]: the pIC50 in test [1] (setting [3]) and in test [2] (setting [4]) was below 5.30 in each case.

For `Cc1c(-c2ccnc(N)n2)sc2ccc(CNC(=O)c3cccnc3Cl)cc12` [Example 149, Cc1c(sc2ccc(CNC(═O)c3cccnc3Cl)cc12)-c4ccnc(N)n4], the pIC50 in test [1] (setting [5]) is below 5.30; in test [2] (setting [6]), above 5.30.

In the case of `Cc1c(-c2ccnc(N)n2)sc2ccc(CNC(=O)c3ccncc3Cl)cc12` [Example 152, Cc1c(sc2ccc(CNC(═O)c3ccncc3Cl)cc12)-c4ccnc(N)n4], the pIC50 in test [1] (setting [5]) and in test [2] (setting [6]) was above 5.30 each time.

On to `CCN(CC)c1ccc(C(=O)NCc2ccc3sc(-c4ccnc(N)n4)c(C)c3c2)cc1` [Example 254, CCN(CC)c1ccc(cc1)C(═O)NCc2ccc3sc(c(C)c3c2)-c4ccnc(N)n4], for which the negative-log IC50 (pIC50) in test [1] (setting [3]) was below 5.30; in test [2] (setting [4]), above 5.30.

Turning to `Cc1c(-c2ccc3[nH]ncc3c2)sc2ccc(Cl)cc12` [Example 10, 5-(5-Chloro-3-methylbenzo[b]thiophen-2-yl)-1H-indazole], the negative-log IC50 (pIC50) in test [1] (setting [3]) and in test [2] (setting [4]) was above 5.30 in each case.

In the case of `CC(=O)Nc1cccc(NC(=O)c2ccc3sc(-c4ccnc(N)n4)c(C)c3c2)c1` [Example 20, N-(3-Acetamidophenyl)-2-(2-aminopyrimidin-4-yl)-3-methylbenzo[b]thiophene-5-carboxamide], the negative logarithm of the IC50 (pIC50) in test [1] (setting [3]) and in test [2] (setting [4]) was above 5.30 each time.

Turning to `Cc1c(-c2ccnc(N)n2)sc2ccc(CNC(=O)c3cnc[nH]3)cc12` [Example 102, Cc1c(sc2ccc(CNC(═O)c3cnc[nH]3)cc12)-c4ccnc(N)n4], the pIC50 in test [1] (setting [3]) and in test [2] (setting [4]) was above 5.30 in each case.

Consider `Cc1c(-c2ccnc(N)n2)sc2ccc(CNC(=O)c3ccc(C(C)C)cc3)cc12` [Example 166, CC(C)c1ccc(cc1)C(═O)NCc2ccc3sc(c(C)c3c2)-c4ccnc(N)n4], for which the pIC50 in test [1] (setting [3]) and in test [2] (setting [4]) was below 5.30 each time.

With `COc1ccc([N+](=O)[O-])c(C(=O)NCc2ccc3sc(-c4ccnc(N)n4)c(C)c3c2)c1` [Example 259, COc1ccc(c(c1)C(═O)NCc2ccc3sc(c(C)c3c2)-c4ccnc(N)n4)[N+]([O−])═O], the pIC50 in test [1] (setting [3]) and in test [2] (setting [4]) was above 5.30 each time.

Take `Cc1c(-c2ccnc(N)n2)sc2ccc(CNC(=O)C3CCCO3)cc12` (stereo not drawn) [Example 106, Cc1c(sc2ccc(CNC(═O)C3CCCO3)cc12)-c4ccnc(N)n4]: the negative logarithm of the IC50 (pIC50) in test [1] (setting [3]) was below 5.30; in test [2] (setting [4]) it was above 5.30.

For the compound `Cc1c(-c2ccnc(N)n2)sc2ccc(CNC(=O)c3ccc(Oc4ccccc4)cc3)cc12` [Example 284, Cc1c(sc2ccc(CNC(═O)c3ccc(Oc4ccccc4)cc3)cc12)-c5ccnc(N)n5], the negative logarithm of the IC50 (pIC50) in test [1] (setting [3]) is below 5.30; in test [2] (setting [4]), above 5.30.

For the compound `Cc1c(-c2ccnc(N)n2)sc2ccc(CNC(=O)c3cc4ccccc4s3)cc12` [Example 202, Cc1c(sc2ccc(CNC(═O)c3cc4ccccc4s3)cc12)-c5ccnc(N)n5], the pIC50 in test [1] (setting [3]) and in test [2] (setting [4]) was above 5.30 in each case.

Take `COc1cccc(N(C)c2ccc3sc(-c4ccnc(N)n4)c(C)c3c2)c1` [Example 78, 4-(5-((3-Methoxyphenyl)(methyl)amino)-3-methylbenzo[b]thiophen-2-yl)pyrimidin-2-amine]: the negative-log IC50 (pIC50) in test [1] (setting [3]) and in test [2] (setting [4]) was above 5.30 each time.

Turning to `Cc1c(-c2ccnc(N)n2)sc2ccc(CNC(=O)c3cccc(I)c3)cc12` [Example 320, Cc1c(sc2ccc(CNC(═O)c3cccc(I)c3)cc12)-c4ccnc(N)n4], the results for the pIC50 in test [1] (setting [3]) and in test [2] (setting [4]) were below 5.30 and above 5.30, respectively.

For `Cc1c(-c2ccnc(N)n2)sc2ccc(CNC(=O)C(C)c3ccc(-c4ccccc4)c(F)c3)cc12` (stereo not drawn) [Example 318, CC(C(═O)NCc1ccc2sc(c(C)c2c1)-c3ccnc(N)n3)c4ccc(c(F)c4)-c5ccccc5], the results for the pIC50 in test [1] (setting [3]) and in test [2] (setting [4]) were below 5.30 and above 5.30, respectively.

Consider `CCC(=O)C(=O)NCc1ccc2sc(-c3ccnc(N)n3)c(C)c2c1` [Example 99, CCC(═O)C(═O)NCc1ccc2sc(c(C)c2c1)-c3ccnc(N)n3], for which the negative logarithm of the IC50 (pIC50) in test [1] (setting [3]) and in test [2] (setting [4]) was above 5.30 each time.

Turning to `Cc1c(-c2ccnc(N)n2)sc2ccc(CNC(=O)c3ccc(N(C)C=O)cc3)cc12` [Example 205, CN(C═O)c1ccc(cc1)C(═O)NCc2ccc3sc(c(C)c3c2)-c4ccnc(N)n4], the pIC50 in test [1] (setting [3]) and in test [2] (setting [4]) was above 5.30 in each case.

As for `Cc1c(-c2ccnc(N)n2)sc2ccc(CNC(=O)C(C)NC(=O)OC(C)(C)C)cc12` (stereo not drawn) [Example 241, C[C](NC(═O)OC(C)(C)C)C(═O)NCc1ccc2sc(c(C)c2c1)-c3ccnc(N)n3], the figures for the pIC50 in test [1] (setting [3]) and in test [2] (setting [4]) were above 5.30 and below 5.30, respectively.

`Cc1c(-c2ccnc(N)n2)sc2ccc(CNC(=O)c3ccccc3Cl)cc12` [Example 147, Cc1c(sc2ccc(CNC(═O)c3ccccc3Cl)cc12)-c4ccnc(N)n4]: the pIC50 was below 5.30 in test [1] (setting [5]) and above 5.30 in test [2] (setting [6]).

`COc1ccc(NC(=O)c2cccc(Cc3ccc4sc(-c5ccnc(N)n5)c(C)c4c3)c2)cc1` [Example 46, 3-((2-(2-Aminopyrimidin-4-yl)-3-methylbenzo[b]thiophen-5-yl)methyl)-N-(4-methoxyphenyl)benzamide]: the pIC50 in test [1] (setting [3]) and in test [2] (setting [4]) was above 5.30 throughout.

As for `Cc1c(-c2ccnc(N)n2)sc2ccc(CNC(=O)c3ccc([N+](=O)[O-])cc3Cl)cc12` [Example 266, Cc1c(sc2ccc(CNC(═O)c3ccc(cc3Cl)[N+]([O−])═O)cc12)-c4ccnc(N)n4], the values for the pIC50 in test [1] (setting [5]) and in test [2] (setting [6]) were below 5.30 and above 5.30, respectively.

`COc1cncc(Nc2ccc3sc(-c4ccnc(N)n4)c(C)c3c2)c1` [Example 67, 4-(5-(5-Methoxypyridin-3-ylamino)-3-methylbenzo[b]thiophen-2-yl)pyrimidin-2-amine]: the pIC50 in test [1] (setting [3]) and in test [2] (setting [4]) was above 5.30 throughout.

For the compound `Cc1c(-c2ccnc(N)n2)sc2ccc(CNC(=O)c3ccccc3-c3ccccc3)cc12` [Example 261, Cc1c(sc2ccc(CNC(═O)c3ccccc3-c4ccccc4)cc12)-c5ccnc(N)n5], the figures for the pIC50 in test [1] (setting [3]) and in test [2] (setting [4]) were below 5.30 and above 5.30, respectively.

For `Cc1c(-c2ccnc(N)n2)sc2ccc(CNC(=O)C(Cc3ccccc3)NC(=O)OC(C)(C)C)cc12` (stereo not drawn) [Example 325, Cc1c(sc2ccc(CNC(═O)[C](Cc3ccccc3)NC(═O)OC(C)(C)C)cc12)-c4ccnc(N)n4], the negative-log IC50 (pIC50) is above 5.30 in test [1] (setting [3]) and below 5.30 in test [2] (setting [4]).

As to `Cc1c(-c2ccnc(N)n2)sc2ccc(CNC(=O)CCc3cccc(C(F)(F)F)c3)cc12` [Example 294, Cc1c(sc2ccc(CNC(═O)CCc3cccc(c3)C(F)(F)F)cc12)-c4ccnc(N)n4], the negative logarithm of the IC50 (pIC50) in test [1] (setting [3]) and in test [2] (setting [4]) was above 5.30 throughout.

For `Cc1ccc(SCC(=O)NCc2ccc3sc(-c4ccnc(N)n4)c(C)c3c2)cc1` [Example 223, Cc1ccc(SCC(═O)NCc2ccc3sc(c(C)c3c2)-c4ccnc(N)n4)cc1], the negative-log IC50 (pIC50) is below 5.30 in test [1] (setting [3]) and above 5.30 in test [2] (setting [4]).
